Measured values as given in publication doi:10.1101/2021.04.08.439011v1 (biorxiv, 2021).
Like-named read-outs stand apart in the source and are kept apart here.

What was measured:
ABL2 = ABL2 (Homo sapiens, UniProt P42684); settings: 1 µM; binder
ANKK1 = ANKK1 (Homo sapiens, UniProt Q8NFD2); settings: 1 µM; binder
ASK2 = ASK2 (Homo sapiens, UniProt O95382); settings: 1 µM; binder
CAMK1G = CAMK1G (Homo sapiens, UniProt Q96NX5); settings: 1 µM; binder
CAMK2B = CAMK2B (Homo sapiens, UniProt Q13554); settings: 1 µM; binder
CDC2L1 = CDC2L1 (Homo sapiens, UniProt P21127); settings: 1 µM; binder
CDK7 = CDK7 (Homo sapiens, UniProt P50613); settings: 1 µM; binder
CDK8 = CDK8 (Homo sapiens, UniProt P49336); settings: 1 µM; binder
DCAMKL3 = DCAMKL3 (Homo sapiens, UniProt Q9C098); settings: 1 µM; binder
DDR1 = DDR1 (Homo sapiens, UniProt Q08345); settings: 1 µM; binder
EGFR(T790M) = EGFR(T790M) (Homo sapiens, UniProt P00533, T790M); settings: 1 µM; binder
FLT3-autoinhibited = FLT3-autoinhibited (Homo sapiens, UniProt P36888); settings: 1 µM; binder
MAP3K2 = MAP3K2 (Homo sapiens, UniProt Q9Y2U5); settings: 1 µM; binder
MEK4 = MEK4 (Homo sapiens, UniProt P45985); settings: 1 µM; binder
MRCKB = MRCKB (Homo sapiens, UniProt Q9Y5S2); settings: 1 µM; binder
MST2 = MST2 (Homo sapiens, UniProt Q13188); settings: 1 µM; binder
MYLK3 = MYLK3 (Homo sapiens, UniProt Q32MK0); settings: 1 µM; binder
Sequence of MYLK3 (Q32MK0 whole entry): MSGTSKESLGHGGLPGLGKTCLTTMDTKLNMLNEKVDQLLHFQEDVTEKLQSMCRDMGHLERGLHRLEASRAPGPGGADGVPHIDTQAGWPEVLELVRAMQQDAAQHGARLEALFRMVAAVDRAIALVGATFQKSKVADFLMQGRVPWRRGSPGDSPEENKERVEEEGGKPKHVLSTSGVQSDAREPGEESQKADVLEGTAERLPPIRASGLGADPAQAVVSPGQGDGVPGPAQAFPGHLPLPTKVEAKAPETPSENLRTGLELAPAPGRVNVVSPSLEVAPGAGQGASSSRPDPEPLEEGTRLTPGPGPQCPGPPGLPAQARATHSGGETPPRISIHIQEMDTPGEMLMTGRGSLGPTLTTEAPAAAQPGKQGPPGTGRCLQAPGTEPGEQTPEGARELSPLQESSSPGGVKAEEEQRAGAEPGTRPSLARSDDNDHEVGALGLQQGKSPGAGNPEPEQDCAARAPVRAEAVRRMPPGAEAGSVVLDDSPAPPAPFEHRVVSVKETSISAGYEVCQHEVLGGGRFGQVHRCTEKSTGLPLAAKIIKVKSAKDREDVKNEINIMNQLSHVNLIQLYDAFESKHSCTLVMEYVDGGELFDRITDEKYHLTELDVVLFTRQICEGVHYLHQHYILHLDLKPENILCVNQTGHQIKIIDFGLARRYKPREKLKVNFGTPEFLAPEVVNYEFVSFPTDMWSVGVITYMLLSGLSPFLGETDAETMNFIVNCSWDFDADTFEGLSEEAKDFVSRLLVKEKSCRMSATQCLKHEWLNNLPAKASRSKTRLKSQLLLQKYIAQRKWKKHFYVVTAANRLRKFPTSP

MYO3B = MYO3B (Homo sapiens, UniProt Q8WXR4); settings: 1 µM; binder
NEK10 = NEK10 (Homo sapiens, UniProt Q6ZWH5); settings: 1 µM; binder
NEK7 = NEK7 (Homo sapiens, UniProt Q8TDX7); settings: 1 µM; binder
PRKCI = PRKCI (Homo sapiens, UniProt P41743); settings: 1 µM; binder
Sequence of PRKCI (P41743 whole entry): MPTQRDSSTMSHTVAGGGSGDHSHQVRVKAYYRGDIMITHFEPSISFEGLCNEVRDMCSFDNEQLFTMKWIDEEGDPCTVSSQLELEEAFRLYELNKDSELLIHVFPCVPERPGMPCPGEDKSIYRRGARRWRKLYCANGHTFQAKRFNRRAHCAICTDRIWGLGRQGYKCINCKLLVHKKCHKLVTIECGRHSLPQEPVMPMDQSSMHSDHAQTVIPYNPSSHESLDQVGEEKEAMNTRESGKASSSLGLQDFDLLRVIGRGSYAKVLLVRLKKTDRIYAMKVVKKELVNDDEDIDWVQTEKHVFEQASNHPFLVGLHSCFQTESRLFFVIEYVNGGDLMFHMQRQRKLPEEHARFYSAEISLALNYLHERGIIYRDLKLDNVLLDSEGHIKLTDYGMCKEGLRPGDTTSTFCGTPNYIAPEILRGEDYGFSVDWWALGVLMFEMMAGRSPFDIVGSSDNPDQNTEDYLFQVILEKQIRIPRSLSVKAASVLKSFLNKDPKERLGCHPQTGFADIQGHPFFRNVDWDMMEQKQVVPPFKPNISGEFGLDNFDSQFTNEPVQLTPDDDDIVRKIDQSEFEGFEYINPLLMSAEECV

RAF1 = RAF1 (Homo sapiens, UniProt P04049); settings: 1 µM; binder
RPS6KA1 = RPS6KA1 (Homo sapiens, UniProt Q15418); settings: binder
Sequence of RPS6KA1 (Q15418 whole entry): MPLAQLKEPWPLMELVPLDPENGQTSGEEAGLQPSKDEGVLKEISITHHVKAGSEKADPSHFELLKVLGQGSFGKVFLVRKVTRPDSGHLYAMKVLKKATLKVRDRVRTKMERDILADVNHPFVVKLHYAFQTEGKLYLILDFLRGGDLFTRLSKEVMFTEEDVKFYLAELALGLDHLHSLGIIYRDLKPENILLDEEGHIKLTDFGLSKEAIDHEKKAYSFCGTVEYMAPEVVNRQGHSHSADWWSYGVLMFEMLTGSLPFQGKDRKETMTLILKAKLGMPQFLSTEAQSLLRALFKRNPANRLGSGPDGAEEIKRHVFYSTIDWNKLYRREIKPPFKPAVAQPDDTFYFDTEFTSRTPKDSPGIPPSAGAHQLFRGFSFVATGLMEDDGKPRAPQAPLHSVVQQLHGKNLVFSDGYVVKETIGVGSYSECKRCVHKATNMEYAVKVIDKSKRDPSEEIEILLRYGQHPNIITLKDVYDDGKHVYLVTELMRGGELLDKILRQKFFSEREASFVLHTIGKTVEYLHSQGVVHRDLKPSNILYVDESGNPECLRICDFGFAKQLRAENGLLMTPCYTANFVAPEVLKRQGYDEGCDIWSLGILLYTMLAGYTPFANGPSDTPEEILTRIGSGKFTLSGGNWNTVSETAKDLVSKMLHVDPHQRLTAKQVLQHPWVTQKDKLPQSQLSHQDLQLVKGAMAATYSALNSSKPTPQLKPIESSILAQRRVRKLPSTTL

SIK1 = SIK1 (Homo sapiens, UniProt P57059); settings: 1 µM; binder
TIE2 = TIE2 (Homo sapiens, UniProt Q02763); settings: 1 µM; binder
TNK1 = TNK1 (Homo sapiens, UniProt Q13470); settings: 1 µM; binder
Sequence of TNK1 (Q13470 whole entry): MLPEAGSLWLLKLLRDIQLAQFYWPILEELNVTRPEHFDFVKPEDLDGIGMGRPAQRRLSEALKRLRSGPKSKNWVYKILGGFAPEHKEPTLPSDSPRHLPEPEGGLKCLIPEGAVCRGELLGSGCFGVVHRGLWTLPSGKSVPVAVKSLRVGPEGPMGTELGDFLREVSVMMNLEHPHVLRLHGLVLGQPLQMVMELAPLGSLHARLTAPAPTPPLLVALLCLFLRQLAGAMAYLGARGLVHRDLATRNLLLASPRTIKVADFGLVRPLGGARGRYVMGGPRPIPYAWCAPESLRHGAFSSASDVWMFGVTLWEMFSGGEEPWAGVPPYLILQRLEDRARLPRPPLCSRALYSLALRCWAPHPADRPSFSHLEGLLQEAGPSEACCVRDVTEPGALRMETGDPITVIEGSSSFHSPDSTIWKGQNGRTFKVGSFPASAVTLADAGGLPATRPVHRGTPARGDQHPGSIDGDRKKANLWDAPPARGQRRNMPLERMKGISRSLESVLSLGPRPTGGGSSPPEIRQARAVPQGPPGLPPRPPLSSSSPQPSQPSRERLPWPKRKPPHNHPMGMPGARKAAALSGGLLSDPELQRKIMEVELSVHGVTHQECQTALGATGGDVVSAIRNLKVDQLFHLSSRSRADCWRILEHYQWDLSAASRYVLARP

TRPM6 = TRPM6 (Homo sapiens, UniProt Q9BX84); settings: 1 µM; binder
TYK2 = TYK2 (Homo sapiens, UniProt P29597); settings: binder
Sequence of TYK2 (P29597 whole entry): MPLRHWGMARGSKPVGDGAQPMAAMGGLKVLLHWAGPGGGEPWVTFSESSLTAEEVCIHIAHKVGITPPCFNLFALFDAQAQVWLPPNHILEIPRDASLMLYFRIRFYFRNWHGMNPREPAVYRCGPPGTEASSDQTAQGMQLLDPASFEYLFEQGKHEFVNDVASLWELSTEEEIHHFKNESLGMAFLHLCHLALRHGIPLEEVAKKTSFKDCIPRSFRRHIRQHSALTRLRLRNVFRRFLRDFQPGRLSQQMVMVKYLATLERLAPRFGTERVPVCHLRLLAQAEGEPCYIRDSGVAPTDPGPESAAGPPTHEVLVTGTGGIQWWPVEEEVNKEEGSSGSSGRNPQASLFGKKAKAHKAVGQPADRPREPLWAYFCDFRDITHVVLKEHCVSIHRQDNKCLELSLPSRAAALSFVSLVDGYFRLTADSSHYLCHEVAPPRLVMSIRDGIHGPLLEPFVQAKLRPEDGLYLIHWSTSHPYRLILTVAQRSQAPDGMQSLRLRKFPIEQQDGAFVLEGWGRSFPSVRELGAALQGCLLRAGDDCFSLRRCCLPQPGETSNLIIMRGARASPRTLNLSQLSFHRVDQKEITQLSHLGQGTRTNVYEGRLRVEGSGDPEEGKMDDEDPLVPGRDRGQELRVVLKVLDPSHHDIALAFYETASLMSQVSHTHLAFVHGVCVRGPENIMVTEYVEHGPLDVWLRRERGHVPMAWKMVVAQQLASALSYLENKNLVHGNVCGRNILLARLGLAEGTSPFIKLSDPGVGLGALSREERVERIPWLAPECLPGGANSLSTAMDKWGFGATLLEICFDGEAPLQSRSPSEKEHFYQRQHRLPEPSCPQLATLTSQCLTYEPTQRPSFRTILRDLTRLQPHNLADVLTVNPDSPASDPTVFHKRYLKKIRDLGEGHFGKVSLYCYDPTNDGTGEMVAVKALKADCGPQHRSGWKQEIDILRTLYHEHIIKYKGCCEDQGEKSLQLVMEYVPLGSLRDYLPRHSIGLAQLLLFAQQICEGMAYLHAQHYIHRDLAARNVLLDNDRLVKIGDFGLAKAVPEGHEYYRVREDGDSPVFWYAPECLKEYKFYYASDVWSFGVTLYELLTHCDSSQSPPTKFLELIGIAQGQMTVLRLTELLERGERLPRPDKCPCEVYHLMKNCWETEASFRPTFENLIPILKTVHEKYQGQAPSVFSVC

VRK2 = VRK2 (Homo sapiens, UniProt Q86Y07); settings: 1 µM; binder
Sequence of VRK2 (Q86Y07 whole entry): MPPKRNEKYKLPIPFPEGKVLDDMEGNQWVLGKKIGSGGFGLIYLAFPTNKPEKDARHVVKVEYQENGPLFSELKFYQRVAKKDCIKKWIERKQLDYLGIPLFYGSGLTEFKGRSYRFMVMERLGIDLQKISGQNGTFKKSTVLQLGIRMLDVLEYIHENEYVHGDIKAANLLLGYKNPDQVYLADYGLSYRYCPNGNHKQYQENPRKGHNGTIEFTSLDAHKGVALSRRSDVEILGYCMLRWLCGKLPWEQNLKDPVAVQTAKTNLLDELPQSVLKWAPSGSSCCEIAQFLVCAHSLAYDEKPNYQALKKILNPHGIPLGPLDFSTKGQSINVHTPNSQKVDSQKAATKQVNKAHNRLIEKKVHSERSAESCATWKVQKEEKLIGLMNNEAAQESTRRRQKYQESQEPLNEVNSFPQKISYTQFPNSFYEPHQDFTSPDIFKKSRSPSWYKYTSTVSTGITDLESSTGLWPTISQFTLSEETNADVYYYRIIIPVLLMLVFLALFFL

YANK2 = YANK2 (Homo sapiens, UniProt Q9NY57); settings: 1 µM; binder

Sequence of CAMK1G (Q96NX5 whole entry): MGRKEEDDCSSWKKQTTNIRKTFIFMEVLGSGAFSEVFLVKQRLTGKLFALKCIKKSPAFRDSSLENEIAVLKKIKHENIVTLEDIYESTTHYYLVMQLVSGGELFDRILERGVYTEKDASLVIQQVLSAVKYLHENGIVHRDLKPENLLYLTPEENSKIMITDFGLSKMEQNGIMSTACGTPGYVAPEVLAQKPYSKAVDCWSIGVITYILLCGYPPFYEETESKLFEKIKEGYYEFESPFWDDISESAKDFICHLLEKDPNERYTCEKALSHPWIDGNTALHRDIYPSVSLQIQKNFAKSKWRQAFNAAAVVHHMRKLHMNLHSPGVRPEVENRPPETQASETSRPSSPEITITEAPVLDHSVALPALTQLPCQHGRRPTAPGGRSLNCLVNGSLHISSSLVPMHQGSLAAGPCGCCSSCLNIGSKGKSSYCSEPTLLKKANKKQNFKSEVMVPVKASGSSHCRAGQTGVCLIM

## CNc1ncc2cc(-c3ccc(-c4cccc(C)n4)cc3Cl)c(=O)n(C[C@H]3OC[C@H](N)CO3)c2n1 [compound 6, G-5555]
ABL2
  Percent Control: 100%
ANKK1
  Percent Control: 87%
ASK2
  Percent Control: 70%
CAMK1G
  Percent Control: 99%
CAMK2B
  Percent Control: 100%
CDC2L1
  Percent Control: 97%
CDK7
  Percent Control: 86%
CDK8
  Percent Control: 100%
DCAMKL3
  Percent Control: 0.5%
DDR1
  Percent Control: 53%
EGFR(T790M)
  Percent Control: 85%
FLT3-autoinhibited
  Percent Control: 100%
MAP3K2
  Percent Control: 67%
MEK4
  Percent Control: 9.6%
MRCKB
  Percent Control: 5.3%
MST2
  Percent Control: 27%
MYLK3
  Percent Control: 100%
MYO3B
  Percent Control: 57%
NEK10
  Percent Control: 100%
NEK7
  Percent Control: 100%
PRKCI
  Percent Control: 63%
RAF1
  Percent Control: 100%
RPS6KA1; Kin.Dom.1 N-terminal
  Percent Control: 69%
RPS6KA1; Kin.Dom.2 C-terminal, 1 µM
  Percent Control: 81%
SIK1
  Percent Control: 0.6%
TIE2
  Percent Control: 52%
TNK1
  Percent Control: 100%
TRPM6
  Percent Control: 100%
TYK2; JH1 domain catalytic
  Percent Control: 74%
TYK2; JH2 domain pseudokinase, 1 µM
  Percent Control: 98%
VRK2
  Percent Control: 100%
YANK2
  Percent Control: 0%
